Assay: wn = mass fraction of the nth substance listed
Settings: 101 kPa, Radial Heat Flow Method

[Al] [aluminum] + [Sn]
Settings | thermal conductivity [W/m/K]
323 K, Crystal, w1 = 0.022 | 98.8
323 K, Crystal, w1 = 0.25 | 139.3
323 K, Crystal, w1 = 0.5 | 191.7
323 K, Crystal, w1 = 0.75 | 235.5
343 K, Crystal, w1 = 0.022 | 97.4
343 K, Crystal, w1 = 0.25 | 136.8
343 K, Crystal, w1 = 0.5 | 185.3
343 K, Crystal, w1 = 0.75 | 233.7
363 K, Crystal, w1 = 0.005 | 83.5
363 K, Crystal, w1 = 0.022 | 93.3
363 K, Crystal, w1 = 0.25 | 135.9
363 K, Crystal, w1 = 0.5 | 180.6
363 K, Crystal, w1 = 0.75 | 228.2
383 K, Crystal, w1 = 0.005 | 79.5
383 K, Crystal, w1 = 0.022 | 92.7
383 K, Crystal, w1 = 0.25 | 132.3
383 K, Crystal, w1 = 0.5 | 177
383 K, Crystal, w1 = 0.75 | 224.4
403 K, Crystal, w1 = 0.005 | 78.7
403 K, Crystal, w1 = 0.022 | 92.9
403 K, Crystal, w1 = 0.25 | 130.5
403 K, Crystal, w1 = 0.5 | 174.6
403 K, Crystal, w1 = 0.75 | 220.9
423 K, Crystal, w1 = 0.005 | 78.5
423 K, Crystal, w1 = 0.022 | 90.5
423 K, Crystal, w1 = 0.25 | 125.4
423 K, Crystal, w1 = 0.5 | 170.6
423 K, Crystal, w1 = 0.75 | 217.6
423 K, Crystal, w1 = 1 | 302.9
443 K, Crystal, w1 = 0.005 | 77.8
443 K, Crystal, w1 = 0.022 | 88.2
443 K, Crystal, w1 = 0.25 | 123.9
443 K, Crystal, w1 = 0.5 | 166.6
443 K, Crystal, w1 = 0.75 | 211.4
463 K, Crystal, w1 = 0.005 | 76.3
463 K, Crystal, w1 = 0.022 | 86.3
463 K, Crystal, w1 = 0.25 | 118
463 K, Crystal, w1 = 0.5 | 160.1
463 K, Crystal, w1 = 0.75 | 207
473 K, Crystal, w1 = 1 | 288.3
483 K, Crystal, w1 = 0.005 | 75.8
483 K, Crystal, w1 = 0.022 | 82.7
483 K, Crystal, w1 = 0.25 | 116.5
483 K, Crystal, w1 = 0.5 | 152.6
483 K, Crystal, w1 = 0.75 | 196.2
493 K, Crystal, w1 = 0.005 | 69.7
493 K, Crystal, w1 = 0.022 | 80.3
493 K, Crystal, w1 = 0.25 | 112.3
493 K, Crystal, w1 = 0.5 | 142
493 K, Crystal, w1 = 0.75 | 188.5
501 K, Liquid, w1 = 0.005 | 73.8
523 K, Crystal, w1 = 1 | 278.6
573 K, Crystal, w1 = 1 | 261.8
623 K, Crystal, w1 = 1 | 255.7
673 K, Crystal, w1 = 1 | 244.8
723 K, Crystal, w1 = 1 | 241.4
773 K, Crystal, w1 = 1 | 238.6
823 K, Crystal, w1 = 1 | 227.4
873 K, Crystal, w1 = 1 | 226.1
923 K, Crystal, w1 = 1 | 208.8
933 K, Liquid, w1 = 1 | 235

[Sn] [tin] + [Al]
thermal conductivity [W/m/K], w2 = 0
Settings | 373 K | 393 K | 413 K | 433 K | 453 K | 473 K | 504 K
Crystal | 67.2 | 65.2 | 63.3 | 61.7 | 62.5 | 60.6 | –
Liquid | – | – | – | – | – | – | 67.2
